Measured values reported in US9714243B2, “4-pyridinonetriazine derivatives as HIV integrase inhibitors” (Merck Sharp & Dohme Corp., priority 2012, dated 2017).
Read-outs that look alike come from different tables or passages of the source.

System: HIV-1 (NL4-3 strain)
Experiment: Assay for inhibition of HIV replication (ViKinG; infected MT4-GFP cells)
Format: cell-based
Procedure, shortened: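 MT4-GFP cells infected with NL4-3 at low MOI for 24 h, washed, then exposed to serially diluted compound (0.4% DMSO) in RPMI. GFP+ cells counted at 24 and 48 h; R0 = 48 h/24 h ratio, inhibition normalised to DMSO and triple-drug controls, IC50 from 4-parameter fit.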

[1] = Human immunodeficiency virus 1, NL43, MT4-GFP cells infected with HIV-1 NL4-3, 10% normal human serum (NHS), read-out: ViKinG IP (nM) with 10% NHS
[2] = Human immunodeficiency virus 1, NL43, MT4-GFP cells infected with HIV-1 NL4-3, 100% normal human serum (NHS), read-out: ViKinG IP (nM) with 100% NHS
[3] = MT4-GFP cells infected with HIV-1 NL4-3, 10% normal human serum (NHS), read-out: ViKinG IP (nM) with 10% NHS
[4] = MT4-GFP cells infected with HIV-1 NL4-3, 100% normal human serum (NHS), read-out: ViKinG IP (nM) with 100% NHS
[5] = Human immunodeficiency virus 1, NL43, MT4-GFP cells infected with HIV-1 NL4-3, 0% normal human serum (NHS), read-out: ViKinG IP (nM) with 0% NHS
[6] = MT4-GFP cells infected with HIV-1 NL4-3, 0% normal human serum (NHS), read-out: ViKinG IP (nM) with 0% NHS

Structure (SMILES) | IC50 [2] [nM] | IC50 [5] [nM] | further results
CC1CCC2N1C(=O)c1c(O)c(=O)c(-c3nnc(Cc4ccc(F)cc4F)s3)cn1N2C (centres unmarked) [Compound 156] | 989 | – | IC50 [1]: 26.7 nM
CN1C2COCCN2C(=O)c2c(O)c(=O)c(-c3nnc(Cc4ccc(F)cc4)s3)cn21 (centres unmarked) [Compound 162] | – | – | IC50 [3]: 10.8 nM; IC50 [4]: 186 nM
CCN1C(=O)c2c(O)c(=O)c(-c3nnc(Cc4ccc(F)cc4F)s3)cn2N(C)C12CCC(OCCOCCOC)CC2 (centres unmarked) [Compound 66] | 93.9 | 12 | –
CN1n2cc(-c3nnc(Cc4ccc(F)cc4F)s3)c(=O)c(O)c2C(=O)N2CCCC21CO (racemic) [Compound 163] | 499 | 8.22 | –
CC(C)[C@]1(C(=O)NC2CC2)CCC2(C1)N(C)C(=O)c1c(O)c(=O)c(-c3nnc(Cc4ccc(F)cc4F)s3)cn1N2C (some centres unmarked) [Compound 144] | 205 | 10.7 | –
CCO[C@H]1CC[C@@]2(CC1)N(CC)C(=O)c1c(O)c(=O)c(-c3nnc(Cc4ccc(F)cc4F)s3)cn1N2C [Compound 9] | 141 | 5.06 | –
CN1C(=O)c2c(O)c(=O)c(C(=O)NCc3ccc(F)cc3F)cn2N(C)[C@@]12CC[C@@H]1C[C@@H]12 [Compound 187] | 502 | 3.64 | –
COC1CCC2(CC1)Cn1cc(-c3nnc(Cc4ccc(F)cc4F)s3)c(=O)c(O)c1C(=O)N2C (centres unmarked) [Compound 212] | – | 3.49 | IC50 [4]: 90.7 nM
CN1C(=O)c2c(O)c(=O)c(-c3nnc(Cc4ccc(F)cc4F)s3)cn2N(C)C12CC[C@@H]1C[C@@]12CO (mixture of isomers) [Compound 200] | – | – | IC50 [6]: 2.04 nM; IC50 [4]: 66.7 nM
CCN1C(=O)c2c(O)c(=O)c(-c3nnc(Cc4ccc(F)cc4F)s3)cn2N(C)C12CCC(OCCOC)CC2 (centres unmarked) [Compound 65] | – | – | IC50 [6]: 6.27 nM; IC50 [4]: 123 nM
COCCN1C(=O)c2c(O)c(=O)c(C(=O)NCc3ccc(F)c(F)c3F)cn2[C@@H](C)C12CC2 [Compound 185] | 212 | 2.2 | –
CCN1C(=O)c2c(O)c(=O)c(C(=O)NCc3ccc(F)cc3F)cn2N(C)[C@@]12CC[C@@H]1C[C@@H]12 [Compound 189] | 626 | 3.62 | –
CCN1C(=O)c2c(O)c(=O)c(-c3nnc(Cc4ccc(F)cc4F)s3)cn2N(C)C12CC[C@@H](C(=O)OC)[C@H](C)C2 (some centres unmarked) [Compound 32] | – | – | IC50 [1]: 21.1 nM
CN1C2CCCN2C(=O)c2c(O)c(=O)c(-c3nnc(Cc4ccc(F)cc4F)s3)cn21 (racemic) [Compound 155] | 304 | – | IC50 [1]: 48.7 nM
CCN1C(=O)c2c(O)c(=O)c(-c3nnc(Cc4ccc(F)cc4)s3)cn2N(C)C12CCCCC2 [Compound 222] | – | 1.28 | –
COCCN1C(=O)c2c(O)c(=O)c(C(=O)NCc3ccc(F)cc3F)cn2N(C)C12CC[C@@H]1C[C@@H]12 (some centres unmarked) [Compound 190] | 2910 | 29 | –
CN1C(=O)c2c(O)c(=O)c(-c3nnc(Cc4ccc(F)cc4F)s3)cn2N(C)C12CCC(CO)CC2 (centres unmarked) [Compound 74] | – | 6.84 | IC50 [1]: 23.6 nM
CN1C2CCCCN2C(=O)c2c(O)c(=O)c(-c3nnc(Cc4ccc(F)cc4F)s3)cn21 (centres unmarked) [Compound 158] | – | – | IC50 [3]: 17.7 nM; IC50 [4]: 503 nM
CN1C(=O)c2c(O)c(=O)c(-c3nnc(Cc4ccc(F)cc4F)s3)cn2N(C)C12CCC(C(=O)O)CC2 (centres unmarked) [Compound 88] | – | – | IC50 [6]: 1280 nM; IC50 [3]: 4200 nM
CCN1C(=O)c2c(O)c(=O)c(-c3nnc(Cc4ccc(F)cc4F)s3)cn2N(C)C12CCC(OCCOCCOC)CC2 (centres unmarked) [Compound 67] | – | – | IC50 [6]: 12.5 nM; IC50 [4]: 160 nM
CN1C(=O)c2c(O)c(=O)c(-c3nnc(Cc4ccc(F)cc4F)s3)cn2N(C)C12CCC(N)CC2 (centres unmarked) [Compound 75] | – | 5.02 | IC50 [1]: 35.3 nM
CN(CCNC(=O)C1CCC2(CC1)N(C)C(=O)c1c(O)c(=O)c(-c3nnc(Cc4ccc(F)cc4F)s3)cn1N2C)C(=O)OC(C)(C)C (centres unmarked) [Compound 140] | – | – | IC50 [6]: 61.6 nM; IC50 [3]: 28.2 nM
CN(C)C(=O)C1CCC2(CC1)N(C)C(=O)c1c(O)c(=O)c(-c3nnc(Cc4ccc(F)cc4)s3)cn1N2C (centres unmarked) [Compound 145] | – | – | IC50 [3]: 102 nM
COCCN1C(=O)c2c(O)c(=O)c(C(=O)NCc3ccc(F)cc3)cn2[C@@H](C)C12CC2 [Compound 184] | 178 | 2.66 | –
CCN1C(=O)c2c(O)c(=O)c(-c3nnc(Cc4ccc(F)cc4F)s3)cn2N(C)C12CCC(NS(C)(=O)=O)CC2 (centres unmarked) [Compound 24] | 1040 | – | IC50 [1]: 185 nM
CCN1C(=O)c2c(O)c(=O)c(-c3nnc(Cc4ccc(F)cc4F)s3)cn2N(C)C12CCC(C(=O)N(C)C)CC2 (centres unmarked) [Compound 101] | – | – | IC50 [3]: 37.5 nM
CN1C(=O)c2c(O)c(=O)c(-c3nnc(Cc4ccc(F)cc4F)s3)cn2N(C)C12CCC(C(=O)NCc1cncs1)CC2 (centres unmarked) [Compound 133] | – | – | IC50 [6]: 190 nM; IC50 [3]: 548 nM
